# Source: PubChem BioAssay AID1963972 (Molecular Pharmacology Branch, DTP, NCI, 2024)
# Test system: 945468-187-T-J2-PDC spheroids viability
# Test: Anticancer human tumor 945468-187-T-J2-PDC patient-derived rectal carcinoma cell line growth inhibition [PI3K]
# Conditions: spheroids with HUVEC and MSC; for IC50: curve of first compound; for viability, T/C: stronger effect = lower value
# Text: Combinatorial screen of targeted agents with the PI3K inhibitors inavolisib, alpelisib, duvelisib, and copanlisib in multi-cell type tumor spheroids
# A high-throughput screen of multi-cell type tumor spheroids was designed to identify active combinations of targeted small molecules and PI3K pathway inhibitors. Complex spheroids include a stromal component modeled by human endothelial cells (HUVEC) and fibroblasts modeled by human mesenchymal stem cells (MSCs). The concentration ranges selected for each drug and investigational agent were based upon clinically achievable concentrations if the clinical Cmax of the agent was known.
# Compounds. The drugs and investigational agents: inavolisib (NSC800729), alpelisib (NSC765974), duvelisib (NSC772469), copanlisib (NSC816437), ipatasertib (NSC767898), afuresertib (NSC778305), talazoparib (NSC767125), sapanisertib (NSC764658), selumetinib (NSC741078), tovorafenib (DAY101, NSC766906), vemurafenib (NSC761431), ravoxertinib (NSC781343), sotorasib (NSC818433), MRTX1133 (NSC 836407), abemaciclib (NSC 768073), palbociclib (NSC758247), venetoclax (NSC 766270), SY5609 (NSC837396), enzalutamide (NSC755605), and darolutamide (NSC825331), were obtained from the National Cancer Institute (NCI) Developmental Therapeutics Program Chemical Repository. The FDA-approved anticancer drug set is available from the NCI Developmental Therapeutics Program. […] The stock solutions were prepared in dimethyl sulfoxide (DMSO, Sigma-Aldrich, St. Louis, MO, cat. D2650) at 800-fold the tested concentration and stored at -70 degrees C prior to their use. All drugs and investigational agents were tested over a range starting from a high concentration at or near the clinical Cmax and decreasing in half-log increments. If the clinical Cmax for an agent had not been determined, the highest concentration tested was 10 microM.
# Cell Culture. All cells were maintained in an incubator at 37 degrees C and 5% CO2 with 95% humidity. The PDC lines were cultured according to standard operating procedures established by the NCI PDMR (https://pdmr.cancer.gov/sops/default.htm). All PDCs were thawed and cultured in Matrigel-coated flasks prepared with a working solution of 1X Ham's F-12 nutrient mix, without supplementation (Invitrogen, Waltham, MA, cat. 11765054), 100 U/mL penicillin-streptomycin (Invitrogen, cat. 15140122), and 2.5% Matrigel (Corning Inc., Corning, NY, cat. 354248) for the first three passages. The 354836-022-R-J1-PDC, 475296-252-R-J1-PDC, and 997726-040-R-J2-PDC lines were cultured in 6A media, which includes advanced DMEM/F-12 (Thermo Fisher Scientific, cat. 12634028), 10 mM HEPES (Thermo Fisher Scientific, cat. 15630080), 1X GlutaMAX supplement (Thermo Fisher Scientific, cat. 35050061), 0.1 mg/mL primocin (InvivoGen, San Diego, CA, cat. ant-pm-2), 10% defined fetal bovine serum, heat inactivated (HyClone Laboratories Inc., Logan, UT, cat. SH30070.03HI), 50% L-WRN conditioned media (ATCC, cat. CRL-3276), 1.25 mM N-Acetyl-L-cysteine (Sigma-Aldrich, cat. A9165), 10 mM nicotinamide (Sigma-Aldrich, cat. N0636), 1X B-27 supplement (Thermo Fisher Scientific, cat. 17504044), 1X N-2 supplement (Thermo Fisher Scientific, cat. 17502048), and 10 microM Y-27632 dihydrochloride (Tocris Bioscience, Bristol, United Kingdom, cat. 1254). The 624824-186-R-J2-PDC line was cultured in 6C/Colon 1B media, which includes all 6A media components plus 50 ng/mL human EGF recombinant protein (Thermo Fisher Scientific, cat. PHG0311). […]
# 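Also: spheroids exposed to compounds for seven days before reading.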
compound,measurement,setting,value
CCCS(=O)(=O)Nc1ccc(F)c(C(=O)c2c[nH]c3ncc(-c4ccc(Cl)cc4)cc23)c1F + CC(Nc1ccc2c(c1)OCCn1cc(N3C(=O)OCC3C(F)F)nc1-2)C(N)=O,IC50,second compound 0.00316 µM,> 10 µM
same,IC50,second compound 0.01 µM,4.28 µM
same,IC50,second compound 0.0316 µM,5.45 µM
same,IC50,second compound 0.1 µM,6.98 µM
same,IC50,second compound 0.316 µM,5.9 µM
same,IC50,second compound 1 µM,5.88 µM
same,"viability, T/C","second compound 0.00316 µM, first compound 0.0316 µM",115%
same,"viability, T/C","second compound 0.00316 µM, first compound 0.1 µM",115%
same,"viability, T/C","second compound 0.00316 µM, first compound 0.316 µM",113%
same,"viability, T/C","second compound 0.00316 µM, first compound 1 µM",97.1%
same,"viability, T/C","second compound 0.00316 µM, first compound 3.16 µM",74.7%
same,"viability, T/C","second compound 0.00316 µM, first compound 10 µM",53.6%
same,"viability, T/C","second compound 0.01 µM, first compound 0.0316 µM",113%
same,"viability, T/C","second compound 0.01 µM, first compound 0.1 µM",115%
same,"viability, T/C","second compound 0.01 µM, first compound 0.316 µM",105%
same,"viability, T/C","second compound 0.01 µM, first compound 1 µM",77.1%
same,"viability, T/C","second compound 0.01 µM, first compound 3.16 µM",74.8%
same,"viability, T/C","second compound 0.01 µM, first compound 10 µM",7.68%
same,"viability, T/C","second compound 0.0316 µM, first compound 0.0316 µM",103%
same,"viability, T/C","second compound 0.0316 µM, first compound 0.1 µM",98.8%
same,"viability, T/C","second compound 0.0316 µM, first compound 0.316 µM",98.8%
same,"viability, T/C","second compound 0.0316 µM, first compound 1 µM",92.1%
same,"viability, T/C","second compound 0.0316 µM, first compound 3.16 µM",89.2%
same,"viability, T/C","second compound 0.0316 µM, first compound 10 µM",6.32%
same,"viability, T/C","second compound 0.1 µM, first compound 0.0316 µM",92.3%
same,"viability, T/C","second compound 0.1 µM, first compound 0.1 µM",109%
same,"viability, T/C","second compound 0.1 µM, first compound 0.316 µM",107%
same,"viability, T/C","second compound 0.1 µM, first compound 1 µM",92.8%
same,"viability, T/C","second compound 0.1 µM, first compound 3.16 µM",90.2%
same,"viability, T/C","second compound 0.1 µM, first compound 10 µM",32.3%
same,"viability, T/C","second compound 0.316 µM, first compound 0.0316 µM",83.4%
same,"viability, T/C","second compound 0.316 µM, first compound 0.1 µM",88.8%
same,"viability, T/C","second compound 0.316 µM, first compound 0.316 µM",85.3%
same,"viability, T/C","second compound 0.316 µM, first compound 1 µM",85.8%
same,"viability, T/C","second compound 0.316 µM, first compound 3.16 µM",78.1%
same,"viability, T/C","second compound 0.316 µM, first compound 10 µM",26.1%
same,"viability, T/C","second compound 1 µM, first compound 0.0316 µM",78.2%
same,"viability, T/C","second compound 1 µM, first compound 0.1 µM",81%
same,"viability, T/C","second compound 1 µM, first compound 0.316 µM",77.4%
same,"viability, T/C","second compound 1 µM, first compound 1 µM",87.9%
same,"viability, T/C","second compound 1 µM, first compound 3.16 µM",80.3%
same,"viability, T/C","second compound 1 µM, first compound 10 µM",24%
